# Test system: NeuroD1 and NeuroD2 genes
# Assay: RT PCR of NeuroD genes after TSA and 5AzaC treatment of adult hippocampal neural stem cells
# Assay type: cell-based, rat
# Settings: 5 nM for 2 days
# Description: To determine whether either of these mechanisms contributed to repression of the NeuroD promoter, adult hippocampal neural stem cells were treated with either an HDAC inhibitor, trichostatin A (TSA), or with the de-methylation reagent 5′-aza-cytidine (5AzaC). Total RNA was extracted from cells that had been treated with 5 nM TSA for 2 days and with 3 μM 5AzaC for 4 days. RT PCR analysis was performed with specific primers for NeuroD1 (SEQ ID NOs:7 and 8) and NeuroD2 (SEQ ID NOs:9 and 10) genes and a control gene, GAPDH (SEQ ID NOs:3 and 4).
smiles,measurement,setting,value
"CC(/C=C/C(=O)NO)=C\[C@@H](C)C(=O)c1ccc(N(C)C)cc1 [TSA, trichostatin A]",expression of GAPDH (control gene),,no effects
same,endogenous expression levels of mRNAs of NeuroD1 and NeuroD2,compared with untreated progenitor cultures,increased

# Source: US20060234378A1, “Molecular switch regulating neurogenesis” (The Salk Institute For Biological Studies, priority 2005, published 2006)
